Assays:
[1] = target: T1, Macrophage scavenger receptor types I and II (Mus musculus) (UniProt P30204); test: Percent inhibition of DiI-acetyl-LDL binding to scavenger receptor of mouse peritoneal macrophages at 100 uM; assay type: functional
T1 sequence (whole entry): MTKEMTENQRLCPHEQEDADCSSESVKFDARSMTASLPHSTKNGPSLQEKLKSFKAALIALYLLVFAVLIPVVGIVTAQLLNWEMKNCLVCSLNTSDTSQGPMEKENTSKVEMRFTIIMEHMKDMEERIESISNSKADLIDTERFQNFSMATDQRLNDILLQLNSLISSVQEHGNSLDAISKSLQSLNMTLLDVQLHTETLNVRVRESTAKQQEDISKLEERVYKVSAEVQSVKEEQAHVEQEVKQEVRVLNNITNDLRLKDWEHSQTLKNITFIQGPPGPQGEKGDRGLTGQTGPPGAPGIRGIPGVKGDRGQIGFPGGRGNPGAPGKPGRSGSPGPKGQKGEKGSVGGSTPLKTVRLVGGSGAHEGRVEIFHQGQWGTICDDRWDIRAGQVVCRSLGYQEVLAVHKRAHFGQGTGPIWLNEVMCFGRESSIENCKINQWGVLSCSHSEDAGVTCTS

[2] = target: T2, Macrophage scavenger receptor types I and II (Mus musculus, UniProt P30204); test: Inhibitory activity against [125I]acetyl-LDL binding to mouse peritoneal macrophage scavenger receptor
T2 sequence (P30204 whole entry): T1 sequence (whole entry)

[3] = target: T1, Macrophage scavenger receptor types I and II (Mus musculus); test: Activity against acetyl-LDLbinding to scavenger receptor as percent inhibition of incorporation of DiI-acetyl-LDL into mouse peritoneal macrophages at 10 uM
[4] = target: T1, Macrophage scavenger receptor types I and II (Mus musculus); test: Activity against acetyl-LDLbinding to scavenger receptor as percent inhibition of incorporation of DiI-acetyl-LDL into mouse peritoneal macrophages at 30 uM
[5] = target: T1, Macrophage scavenger receptor types I and II (Mus musculus); test: Inhibitory activity against [125I]-acetyl-LDL binding to mouse peritoneal macrophage scavenger receptor at 100 uM
[6] = target: T1, Macrophage scavenger receptor types I and II (Mus musculus); test: Inhibitory activity against [125I]acetyl-LDL binding to mouse peritoneal macrophage scavenger receptor at 10 uM
[7] = target: T1, Macrophage scavenger receptor types I and II (Mus musculus); test: Inhibitory activity against [125I]acetyl-LDL binding to mouse peritoneal macrophage scavenger receptor at 30 uM

inhibition [1] [%] | inhibition [4] [%] | other results | Structure (SMILES)
84.6 | 72.5 | IC50 [2]: 2000 nM; inhibition [3]: 57% | CCCCCCCCCCCCCCCCCC(=O)Nc1ccc(S(=O)(=O)O)c(NC(=O)CCCCCCCCCCCCCCCCC)c1
66.6 | 48 | – | CCCCCCCCCCCCCC(=O)Nc1ccc(S(=O)(=O)O)c(NC(=O)CCCCCCCCCCCCC)c1
61.4 | 43.8 | inhibition [5]: 81.1%; inhibition [6]: 6.6%; inhibition [7]: 41.8%; inhibition [3]: 20.5% | CCCCCCCCCCCCCCCCCC(=O)NC(COS(=O)(=O)O)C(=O)NCCCCCCCCCCCCCC (stereo not drawn)
< 10 | – | – | CCCCCCCCCCCCCCCCCC(=O)Nc1ccc(S(=O)(=O)O)cc1
< 10 | – | – | CCCCCCCCCCCCCCCCCC(=O)Nc1ccc(C(=O)O)c(NC(=O)CCCCCCCCCCCCCCCCC)c1
23.7 | – | – | CCCCCCCCCCCCCCCCCC(=O)N1C[C@H](OS(=O)(=O)O)C[C@H]1C(=O)NCCCCCCCCCCCCCC
< 10 | – | – | CCCCCCCCCC(=O)Nc1ccc(S(=O)(=O)O)c(NC(=O)CCCCCCCCC)c1
< 10 | – | – | CCCCCCCCCCCCCCCCCC(=O)Nc1ccc(COS(=O)(=O)O)cc1NC(=O)CCCCCCCCCCCCCCCC
32.1 | – | – | CCCCCCCCCCCCCCCCCC(=O)Nc1ccc(NC(=O)CCCCCCCCCCCCCCCCC)c(S(=O)(=O)O)c1
85.7 | 48 | – | CCCCCCCCCCCCCCCCCCCCCC(=O)Nc1ccc(S(=O)(=O)O)c(NC(=O)CCCCCCCCCCCCCCCCCCCCC)c1
71.2 | 46.2 | inhibition [3]: 18.5% | CCCCCCCCCCCCCCCCCC(=O)Nc1cc(NC(=O)CCCCCCCCCCCCCCCCC)cc(S(=O)(=O)O)c1

Reference: ChEMBL document CHEMBL1148259, “2,4-Bis(octadecanoylamino)benzenesulfonic acid sodium salt as a novel scavenger receptor inhibitor with low molecular weight” (Bioorg Med Chem Lett, 2004)
